Reference: the CheMixHub ionic liquid set

Experiment: xn = mol fraction of the nth substance listed

CC[n+]1ccccc1.[Cl-] + CCCC[n+]1ccccc1.[Br-]
viscosity [mPa·s], 101 kPa
Conditions	x1 = 0.118	x1 = 0.197	x1 = 0.318	x1 = 0.384	x1 = 0.492	x1 = 0.585	x1 = 0.686	x1 = 0.81	x1 = 0.902
373.1 K	–	–	–	61	54.1	48.8	43.7	38	–
378.1 K	–	–	53.6	50.2	44.7	40.6	36.5	32	–
383.1 K	53.8	49.7	44	41.4	37.1	33.8	30.6	27.1	–
388.1 K	44	40.8	36.4	34.3	31	28.4	25.8	23	20.9
393.1 K	36.2	33.7	30.3	28.6	26	24	21.9	19.7	18
398.1 K	30	28.1	25.4	24.1	22	20.4	18.8	17	15.59
403.1 K	25.1	23.6	21.5	20.5	18.8	17.5	16.19	14.73	13.59
408.1 K	21.2	20.1	18.4	17.5	16.2	15.19	14.08	12.9	11.96
413.1 K	18.2	17.2	15.87	15.16	14.1	13.27	12.36	11.39	10.58
418.1 K	15.69	14.92	13.82	13.25	12.37	11.7	10.93	10.12	9.43
423.1 K	13.69	13.06	12.15	11.69	10.96	10.4	9.75	9.08	8.49
428.1 K	12.07	11.55	10.79	10.4	9.79	9.32	8.77	8.21	7.68
433.1 K	10.76	10.32	9.68	9.35	8.83	8.44	7.96	7.48	7.02
438.1 K	9.69	9.31	8.77	8.48	8.04	7.7	7.29	6.88	6.46
443.1 K	8.82	8.5	8.03	7.78	7.39	7.11	6.74	6.38	6

CC[n+]1ccccc1.[Cl-] + CCCC[n+]1ccccc1.[Cl-]
101 kPa
Conditions	viscosity [mPa·s]
388.1 K, x1 = 0.804	23.2
393.1 K, x1 = 0.504	27.4
393.1 K, x1 = 0.804	19.8
398.1 K, x1 = 0.504	23.4
398.1 K, x1 = 0.702	18.5
398.1 K, x1 = 0.804	17
403.1 K, x1 = 0.804	14.67
408.1 K, x1 = 0.198	22.8
413.1 K, x1 = 0.198	19.7
413.1 K, x1 = 0.795	11.06
418.1 K, x1 = 0.504	13.42
423.1 K, x1 = 0.388	12.25
428.1 K, x1 = 0.702	8.33
428.1 K, x1 = 0.795	7.76
433.1 K, x1 = 0.597	8.38
438.1 K, x1 = 0.302	9.51
438.1 K, x1 = 0.702	6.8
443.1 K, x1 = 0.504	8.1
443.1 K, x1 = 0.804	6.06

CO + CCCC[n+]1ccn(C)c1.F[B-](F)(F)F
101 kPa, x1 = 1
Conditions	viscosity [mPa·s]
303.15 K	0.519
333.15 K	0.363

ClCCl + CCCC[n+]1ccn(C)c1.F[B-](F)(F)F
298.15 K
Conditions	electrical conductivity, 101 kPa [S/m]	viscosity, 101 kPa [mPa·s]	viscosity, 101.33 kPa [mPa·s]
x1 = 0.1	0.265	85	–
x1 = 0.1923	0.348	63.1	–
x1 = 0.2841	0.45	46.1	–
x1 = 0.3884	0.592	31.2	–
x1 = 0.4507	–	–	14.3
x1 = 0.4878	0.772	20	–
x1 = 0.5882	0.99	12.3	–
x1 = 0.6897	1.18	6.73	–
x1 = 0.756	1.26	4	–
x1 = 0.8395	1.18	1.96	–

ClCCl + CCCC[n+]1ccn(C)c1.F[P-](F)(F)(F)(F)F
298.15 K, 101 kPa
Conditions	electrical conductivity [S/m]	viscosity [mPa·s]
x1 = 0.2451	0.394	89
x1 = 0.4351	0.731	34.7

c1ccccc1 + CCCC[n+]1ccn(C)c1.N#C[S-]
100 kPa, x1 = 1
Conditions	viscosity [mPa·s]
298.15 K	0.605
308.15 K	0.527
318.15 K	0.466
328.15 K	0.363

CO + CCCC[n+]1ccn(C)c1.O=S(=O)([N-]S(=O)(=O)C(F)(F)F)C(F)(F)F
Conditions	viscosity [mPa·s]
298 K, 100 kPa, x2 = 0	0.534

ClCCl + CCCC[n+]1ccn(C)c1.O=S(=O)([N-]S(=O)(=O)C(F)(F)F)C(F)(F)F
298 K, 101 kPa
Conditions	electrical conductivity [S/m]
x1 = 0.8744	1.36
x1 = 0.9287	0.98
x1 = 0.9459	0.797

c1ccccc1 + CCCC[n+]1ccn(C)c1.O=S(=O)([O-])C(F)(F)F
100 kPa, x1 = 1
Conditions	viscosity [mPa·s]
308.15 K	0.527
318.15 K	0.466

CO + CCCC[n+]1ccn(C)c1.[Cl-]
Conditions	viscosity [mPa·s]
308.15 K, 101 kPa, x1 = 1	0.49

C=CC[n+]1ccn(C)c1.O=S(=O)([N-]S(=O)(=O)C(F)(F)F)C(F)(F)F + CCCO
298.15 K, 100 kPa
Conditions	viscosity [mPa·s]
x1 = 0.2	5.11
x1 = 0.5	10.41
x1 = 0.7	16.23
x1 = 0.8	20.34
x1 = 0.9	25.56

CC(O)C(=O)[O-].C[N+](C)(C)CCO + CCCO + O
100 kPa, x1 = 0.00408, x2 = 0.5431
Conditions	viscosity [mPa·s]
288.15 K	3.551
298.15 K	2.585
308.15 K	1.943

CC(O)C(=O)[O-].C[N+](C)(C)CCO + CCO
101 kPa
Conditions	viscosity [mPa·s]
293.15 K, x2 = 0.2996	225.4
293.15 K, x2 = 0.7013	17.75
293.15 K, x2 = 0.7987	8.579
298.15 K, x2 = 0.7987	7.357
303.15 K, x2 = 0.601	25.96
303.15 K, x2 = 0.8996	2.853
308.15 K, x2 = 0.2011	144.8
318.15 K, x2 = 0	158.7
318.15 K, x2 = 0.601	15.05
323.15 K, x2 = 0.1039	91.6
323.15 K, x2 = 0.5003	20.51
323.15 K, x2 = 0.7987	3.792
328.15 K, x2 = 0.1039	72.67
328.15 K, x2 = 0.601	11.1
328.15 K, x2 = 0.7987	3.387
333.15 K, x2 = 0.1039	58.6
333.15 K, x2 = 0.601	9.667
338.15 K, x2 = 0.3999	19.08

CCCC[n+]1ccn(C)c1.[I-] + CCO
298.15 K, 100 kPa
Conditions	electrical conductivity [S/m]
x1 = 0.009029	0.254
x1 = 0.1006	1.47
x1 = 0.2076	1.74
